Consider 30 compounds from US20230083973A1, “SUBSTITUTED CYCLOPROPYL-2,2'-BIP[…], ANALOGUES THEREOF, AND METHODS USING SAME” (priority 2019, published 2023).

The first test deals with HBsAg. The test is described as follows: HBsAg assay: inhibition of HBsAg in HepG2.2.15 cells (chemiluminescence immunoassay of supernatant). The class given is cell-based, hepatitis B virus. Particulars: Hepatitis B virus, HepG2.2.15, 144 h, read-out: sAg EC50, HepG2.2.15 cells; HBsAg in supernatant at day 6 after exposure to compound; 0.5% DMSO. The method, boiled down:
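HepG2.2.15 cells treated with serially diluted compounds (0.5% DMSO), medium and compound refreshed after 2–3 days, supernatant harvested at day 6. Secreted HBsAg measured by chemiluminescence immunoassay; EC50 from dose-response curves, with parallel CellTiter-Glo viability at 5,000 cells/well.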
Regarding `O[C@@H]1CCN(c2cc(C3CC3c3cnc(-c4ncccn4)nc3)cc(F)c2F)C1` (single isomer, unassigned) [Example 104], the EC50 (as a rule, the midpoint of the concentration-response curve) worked out at 78 nM.

On to `CO[C@@H]1CCN(c2cc(C3CC3c3cnc(-c4ncccn4)nc3)cc(Cl)c2F)C1` (single isomer, unassigned) [Example 110], for which the EC50 worked out at 190 nM.

On to `O[C@@H]1CCN(c2cc(C3CC3c3cnc(-c4ncccn4)nc3)cc(Cl)c2F)C1` (single isomer, unassigned) [Example 126], for which the EC50 worked out at 120 nM.

The test is the same for the next values; noted with them: read-out: sAg EC50; HepG2.2.15 cells; HBsAg in supernatant at day 6 after exposure to compound; 0.5% DMSO.
Regarding `COc1cc(C2CC2c2cnc(-c3ncccn3)nc2)cc(N2CCCC2)c1F` (single isomer, unassigned) [Example 100, trans-5-(2-(4-Fluoro-3-methoxy-5-(pyrrolidin-1-yl)phenyl)cyclopropyl)-2,2′-bipyrimidine], the EC50 was found to be 61 nM.

Consider `COc1cc(C2CC2c2cnc(-c3ncccn3)nc2)cc(N2CCCC2)c1F` (single isomer, unassigned) [Example 101, trans-5-(2-(4-Fluoro-3-methoxy-5-(pyrrolidin-1-yl)phenyl)cyclopropyl)-2,2′-bipyrimidine], for which the EC50 came to 800 nM.

As to `CO[C@H]1CCN(c2cc(C3CC3c3cnc(-c4ncccn4)nc3)cc(F)c2F)C1` (single isomer, unassigned) [Example 102], the EC50 amounted to 29 nM.

As for `CO[C@H]1CCN(c2cc(C3CC3c3cnc(-c4ncccn4)nc3)cc(F)c2F)C1` (single isomer, unassigned) [Example 103], the EC50 is 8 nM.

For the compound `O[C@@H]1CCN(c2cc(C3CC3c3cnc(-c4ncccn4)nc3)cc(F)c2F)C1` (single isomer, unassigned) [Example 105], the EC50 was found to be 97 nM.

On to `O[C@H]1CCN(c2cc(C3CC3c3cnc(-c4ncccn4)nc3)cc(F)c2F)C1` (single isomer, unassigned) [Example 106], for which the EC50 was 85 nM.

With `O[C@H]1CCN(c2cc(C3CC3c3cnc(-c4ncccn4)nc3)cc(F)c2F)C1` (single isomer, unassigned) [Example 107], the EC50 was 21 nM.

In the case of `Fc1c(Cl)cc(C2CC2c2cnc(-c3ncccn3)nc2)cc1N1CCCC1` (single isomer, unassigned) [Example 108, trans-5-(2-(3-Chloro-4-fluoro-5-(pyrrolidin-1-yl)phenyl)cyclopropyl)-2,2′-bipyrimidine], the EC50 stood at 78 nM.

For `Fc1c(Cl)cc(C2CC2c2cnc(-c3ncccn3)nc2)cc1N1CCCC1` (single isomer, unassigned) [Example 109, trans-5-(2-(3-Chloro-4-fluoro-5-(pyrrolidin-1-yl)phenyl)cyclopropyl)-2,2′-bipyrimidine], the EC50 came to 25 nM.

Turning to `CO[C@@H]1CCN(c2cc(C3CC3c3cnc(-c4ncccn4)nc3)cc(Cl)c2F)C1` (single isomer, unassigned) [Example 111], the EC50 came out at 120 nM.

In the case of `COc1cc(F)cc(C2CC2c2cnc(-c3ncccn3)nc2)c1` (single isomer, unassigned) [Example 112, trans-5-(2-(3-Fluoro-5-methoxyphenyl)cyclopropyl)-2,2′-bipyrimidine], the EC50 was 500 nM.

For the compound `COc1cc(F)cc(C2CC2c2cnc(-c3ncccn3)nc2)c1` (single isomer, unassigned) [Example 113, trans-5-(2-(3-Fluoro-5-methoxyphenyl)cyclopropyl)-2,2′-bipyrimidine], the EC50 turned out to be 26 nM.

For `COc1c(Cl)ccc(C2CC2c2cnc(-c3ncccn3)nc2)c1OC` (single isomer, unassigned) [Example 114, trans-5-(2-(4-Chloro-2,3-dimethoxyphenyl)cyclopropyl)-2,2′-bipyrimidine], the EC50 was determined as 3000 nM.

Turning to `COc1c(Cl)ccc(C2CC2c2cnc(-c3ncccn3)nc2)c1OC` (single isomer, unassigned) [Example 115, trans-5-(2-(4-Chloro-2,3-dimethoxyphenyl)cyclopropyl)-2,2′-bipyrimidine], the EC50 is 320 nM.

Regarding `CO[C@H]1CCN(c2cc(C3CC3c3cnc(-c4ncccn4)nc3)cc(Cl)c2F)C1` (single isomer, unassigned) [Example 116], the EC50 amounted to 90 nM.

Regarding `CO[C@H]1CCN(c2cc(C3CC3c3cnc(-c4ncccn4)nc3)cc(Cl)c2F)C1` (single isomer, unassigned) [Example 117], the 50% effective concentration (EC50) was 11 nM.

Regarding `Fc1cc(Cl)cc(C2CC2c2cnc(-c3ncccn3)nc2)c1` (single isomer, unassigned) [Example 118, trans-5-(2-(3-Chloro-5-fluorophenyl)cyclopropyl)-2,2′-bipyrimidine], the EC50 came out at 2000 nM.

For `Fc1cc(Cl)cc(C2CC2c2cnc(-c3ncccn3)nc2)c1` (single isomer, unassigned) [Example 119, trans-5-(2-(3-Chloro-5-fluorophenyl)cyclopropyl)-2,2′-bipyrimidine], the EC50 turned out to be 330 nM.

For `O[C@H]1CCN(c2cc(C3CC3c3cnc(-c4ncccn4)nc3)cc(Cl)c2F)C1` (single isomer, unassigned) [Example 120], the EC50 came to 99 nM.

For the compound `O[C@H]1CCN(c2cc(C3CC3c3cnc(-c4ncccn4)nc3)cc(Cl)c2F)C1` (single isomer, unassigned) [Example 121], the EC50 worked out at 11 nM.

`COC1CN(c2cc([C@@H]3C[C@H]3c3cnc(-c4ncccn4)nc3)cc(F)c2F)C1` (single isomer, unassigned) [Example 122, trans-5-(2-(3,4-difluoro-5-(3-methoxyazetidin-1-yl)phenyl)cyclopropyl)-2,2′-bipyrimidine]: the EC50 came to 61 nM.

With `COC1CN(c2cc([C@@H]3C[C@H]3c3cnc(-c4ncccn4)nc3)cc(F)c2F)C1` (single isomer, unassigned) [Example 123, trans-5-(2-(3,4-Difluoro-5-(3-methoxyazetidin-1-yl)phenyl)cyclopropyl)-2,2′-bipyrimidine], the EC50 turned out to be 12 nM.

Regarding `COc1cc(C2CC2c2ccc(-c3ncccn3)nc2)cc(F)c1F` (single isomer, unassigned) [Example 124, trans-2-(5-(2-(3,4-Difluoro-5-methoxyphenyl)cyclopropyl)pyridin-2-yl)pyrimidine], the half-maximal effective concentration (EC50) was 290 nM.

`COc1cc(C2CC2c2ccc(-c3ncccn3)nc2)cc(F)c1F` (single isomer, unassigned) [Example 125, trans-2-(5-(2-(3,4-Difluoro-5-methoxyphenyl)cyclopropyl)pyridin-2-yl)pyrimidine]: the EC50 was found to be 4 nM.

In the case of `O[C@@H]1CCN(c2cc(C3CC3c3cnc(-c4ncccn4)nc3)cc(Cl)c2F)C1` (single isomer, unassigned) [Example 127], the EC50 is 110 nM.

In the case of `Fc1cc(C2CC2c2cnc(-c3ncccn3)nc2)cc(OCC2CC2)c1F` (single isomer, unassigned) [Example 128, trans-5-(2-(3-(Cyclopropylmethoxy)-4,5-difluorophenyl)cyclopropyl)-2,2′-bipyrimidine], the EC50 was 420 nM.

For `Fc1cc(C2CC2c2cnc(-c3ncccn3)nc2)cc(OCC2CC2)c1F` (single isomer, unassigned) [Example 129, trans-5-(2-(3-(Cyclopropylmethoxy)-4,5-difluorophenyl)cyclopropyl)-2,2′-bipyrimidine], the EC50 was 18 nM.
